The results in this text go back to paper PMC10291553, “Exploring Structure–Activity Relationships in Photodynamic Therapy Anticancer Agents Based on Ir(III)-COUPY Conjugates” (Journal of Medicinal Chemistry, 2023).

Like-named read-outs stand apart in the source and are kept apart here.

One assay concerns A2780cis cells. The assay can be described thus: Photo- and cytotoxic activity determination (MTT), A2780cis cells, normoxia or hypoxia. Type of assay: cell-based. The source says: (§1) Having shown that the Ir(III)-COUPY conjugates can sensitize both type I and II ROS through spectroscopic techniques and readily internalize into living cells, their photocytotoxicity was screened in various cancer cell lines. This screening included two representative melanoma cell lines (human A375 and […] human SK-MEL-28) and cancer cells with resistance to the clinical drug cisplatin. For the latter, both sensitive and cisplatin-resistant ovarian cancer cells (A2780 and A2780cis) as well as HeLa cells, which also show a degree of chemoresistance to the platinum anticancer drug in vitro,[54] were used. For the determination of dark and light cytotoxicity, dose–response curves were assayed from both conditions to provide the correspondent IC50 values, which correspond to the concentration needed for inhibition of cell growth by 50%. Phototherapeutic index (PI) was calculated as the ratio of dark to light IC50 value for each compound.
(§2) A375, HeLa, and SK-MEL-28 cells were cultured in Dulbecco’s modified Eagle medium (DMEM) supplemented with 10% FBS, L-glutamine, and 1% penicillin–streptomycin. A2780 and A2780cis cells were grown in RPMI-1640 cell medium supplemented with 10% fetal bovine serum (FBS) and 2 mM L-glutamine. Acquired resistance to cisplatin in the A2780cis cell line was maintained by adding cisplatin 1 μM to culture medium every second passage. Cells were cultured in a humidified incubator at 310 K with 5% CO2 atmosphere and subcultured two or three times a week with appropriate densities and were confirmed to be mycoplasma-free using a standard Hoechst DNA staining method.
A2780, A2780cis, HeLa, A375, and SK-MEL-28 cells were maintained at logarithmic growth-phase and cultured in 96-well plates at a density of 5000 cells/well in complete medium for 24 h at 310 K, 5% CO2 in a humidified incubator. For hypoxia experiments, a hypoxia condition was set up by Tissue Culture Service at University of Murcia using nitrogen (N2) to displace O2 down to a minimum of 2% in a Forma Steri-Cycle i160 incubator (Thermo Fisher Scientific). […] A light-based treatment schedule was performed as follows: 1 h incubation with the compounds in the dark, followed by 1 h incubation under irradiation conditions by placing the Photoreactor EXPO-LED from Luzchem (Canada) fitted with green lamps (final light intensity applied of 1.5 mW/cm^2 at λmax = 520 nm) inside the CO2 incubator. All the cell culture plates subjected to light irradiation included untreated controls to verify that cell viability was not affected by light. Then, treatment-containing media was removed, and fresh media was added for a 48 h cell recovery period; the temperature throughout the experiment remained at 310 K. Dark control samples were placed in the same dark conditions and then kept incubated for 1 h in the dark in the humidified CO2 incubator. Medium was then aspirated by suction, cells were loaded with 50 μL of MTT solution (1 mg/mL) for additional 4 h and then removed, and 50 μL of DMSO was added to solubilize the purple formazan crystals formed in active cells. The absorbance was measured at 570 nm using a microplate reader (FLUOstar Omega), and the IC50 values were calculated based on the inhibitory rate curves using the following equation [drawing 4] 4 where I represents the percentage inhibition of viability observed, Imax is the maximal inhibitory effect, IC50 is the concentration that inhibits 50% of maximal growth, C is the concentration of the treatment, and n is the slope of the semi-logarithmic dose–response sigmoidal curves. The non-linear fitting was performed using SigmaPlot 14.0 software. All experiments were performed in three independent studies with n = 3 replicates per concentration level. For a detailed phototoxicity procedure, ref ([43]) includes technical explanations.

The next assay deals with A375. As to the kind of experiment: Photo- and cytotoxic activity determination (MTT), A375 cells. Type of assay: cell-based, human. As to conditions: normoxia; for A375 PI (phototherapeutic index), IC50 dark/IC50 irradiated: 520 nm, dark tested up to 100 μM; for IC50: 48 h drug-free medium.
Excerpt: as §1, §2
(§3) A2780, A2780cis, HeLa, A375, and SK-MEL-28 cells were maintained at logarithmic growth-phase and cultured in 96-well plates at a density of 5000 cells/well in complete medium for 24 h at 310 K, 5% CO2 in a humidified incubator. For hypoxia experiments, a hypoxia condition was set up by Tissue Culture Service at University of Murcia using nitrogen (N2) to displace O2 down to a minimum of 2% in a Forma Steri-Cycle i160 incubator (Thermo Fisher Scientific). Serial dilutions of the compounds were added at the final concentrations in the range of 0–100 μM in a final volume of 100 μL per well. A light-based treatment schedule was performed as follows: 1 h incubation with the compounds in the dark, followed by 1 h incubation under irradiation conditions by placing the Photoreactor EXPO-LED from Luzchem (Canada) fitted with green lamps (final light intensity applied of 1.5 mW/cm^2 at λmax = 520 nm) inside the CO2 incubator. All the cell culture plates subjected to light irradiation included untreated controls to verify that cell viability was not affected by light. Then, treatment-containing media was removed, and fresh media was added for a 48 h cell recovery period; the temperature throughout the experiment remained at 310 K. Dark control samples were placed in the same dark conditions and then kept incubated for 1 h in the dark in the humidified CO2 incubator. Medium was then aspirated by suction, cells were loaded with 50 μL of MTT solution (1 mg/mL) for additional 4 h and then removed, and 50 μL of DMSO was added to solubilize the purple formazan crystals formed in active cells. The absorbance was measured at 570 nm using a microplate reader (FLUOstar Omega), and the IC50 values were calculated based on the inhibitory rate curves using the following equation [drawing 4] 4 where I represents the percentage inhibition of viability observed, Imax is the maximal inhibitory effect, IC50 is the concentration that inhibits 50% of maximal growth, C is the concentration of the treatment, and n is the slope of the semi-logarithmic dose–response sigmoidal curves. The non-linear fitting was performed using SigmaPlot 14.0 software. All experiments were performed in three independent studies with n = 3 replicates per concentration level. For a detailed phototoxicity procedure, ref ([43]) includes technical explanations.

A further assay deals with SK-MEL-28. The assay can be described thus: Photo- and cytotoxic activity determination (MTT), SK-MEL-28 cells. To be noted: normoxia. Type of assay: cell-based, human.
Excerpt: as §1, §2, §3

A further assay relates to A2780. The assay can be described thus: Photo- and cytotoxic activity determination (MTT), A2780 cells. Type of assay: cell-based. As to conditions: normoxia.
Excerpt: as §1, §2, §3

The mark [1] stands for this setting: A2780cis, hypoxia 2% O2, 1 h incubation + 1 h green light 520 nm, 48 h drug-free, read-out: Hypoxia 520 nm IC50.
[2] abbreviates: A2780cis, hypoxia 2% O2, dark, tested up to 250 μM, read-out: Hypoxia Dark IC50.
Where [3] appears, read: A2780cis, normoxia 21% O2, dark, tested up to 250 μM, read-out: Normoxia Dark IC50.
Where [4] appears, read: 520 nm, dark tested up to 100 μM.

Usually IC50 stands for the midpoint of a concentration-inhibition curve. Broadly, the inhibition is the share of the control response that was lost under treatment.

As to `CCCCn1c2[n+](c3cc(C(=O)NCCCNC(=O)C[n+]4ccc(/C(C#N)=C5/C=C(C)c6ccccc6O5)cc4)ccc31)[Ir-3]13([c]4ccccc4-c4[nH]c5ccccc5[n+]41)([c]1ccccc1-c1[nH]c4ccccc4[n+]13)[n+]1c-2ccc2ccccc21` [3b], the “Partial inhibition (% of cell growth inhibition with respect to untreated controls), Hypoxia” value in the assay on A2780cis cells (250 μM, A2780cis, 2 h incubation in the dark, 48 h drug-free recovery, hypoxia) came out at 45 ± 6%. Also, the “Partial inhibition (% of cell growth inhibition with respect to untreated controls), Normoxia” value in the assay on A2780cis cells (250 μM, A2780cis, 2 h incubation in the dark, 48 h drug-free recovery, normoxia) is listed as 63 ± 5%. The “PI (phototherapeutic index), blue light” value in the assay on A2780cis cells (A2780cis, 465 nm) is recorded as over 41.7. The IC50 in the assay with A2780cis cells (A2780cis, 1 h incubation + 1 h blue light 465 nm, 5 mW/cm2, 48 h drug-free, read-out: 465 nm IC50) is 2.4 µM; in the assay with A2780cis cells (setting [1]) it was 31 µM; in the assay on A2780cis cells (setting [2]) it was over 250 µM; with A2780cis cells (setting [3]), over 250 µM; in the assay on A2780cis cells (hypoxia, dark, read-out: A2780cis Dark IC50 (microM) Hypoxia) it was over 250 µM; with A2780cis cells (normoxia, 1 h incubation + 1 h green light 520 nm, 1.5 mW cm^–2, 48 h drug-free medium, read-out: A2780cis light IC50) it was 61 ± 8 µM. Besides, the half-inhibitory concentration (IC50) is over 250 µM in the assay on A2780cis cells (normoxia, dark, up to 250 microM, read-out: A2780cis Dark IC50 (microM) Normoxia); over 100 µM in the assay on A2780cis cells (normoxia, kept in the dark, tested up to 100 μM, 2 h treatment, 48 h drug-free medium, read-out: A2780cis dark IC50); 78 ± 6 µM with A375 (1 h incubation + 1 h green light 520 nm, 1.5 mW cm^–2, read-out: A375 light IC50); over 100 µM in the assay with A375 (kept in the dark, 2 h treatment, read-out: A375 dark IC50); 2.1 ± 0.2 µM with SK-MEL-28 (1 h incubation + 1 h green light 520 nm, 1.5 mW cm^–2, 48 h drug-free medium, read-out: SK-MEL-28 light IC50); over 100 µM with SK-MEL-28 (kept in the dark, 2 h treatment, 48 h drug-free medium, read-out: SK-MEL-28 dark IC50). Further, the half-inhibitory concentration (IC50) is 7.1 ± 0.1 µM in the assay with A2780 (1 h incubation + 1 h green light 520 nm, 1.5 mW cm^–2, 48 h drug-free medium, read-out: A2780 light IC50) and over 100 µM in the assay on A2780 (kept in the dark, 2 h treatment, 48 h drug-free medium, read-out: A2780 dark IC50). The “Hypoxia PI (phototherapeutic index)” value in the assay with A2780cis cells (A2780cis, hypoxia 2% O2, 520 nm, dark tested up to 250 μM) is recorded as over 8.1. In addition, the “Normoxia PI (phototherapeutic index)” value in the assay on A2780cis cells (A2780cis, normoxia 21% O2, 520 nm, dark tested up to 250 μM) is given as over 4.1. The “A2780cis PI (phototherapeutic index), IC50 dark/IC50 irradiated” value with A2780cis cells (normoxia, 520 nm, dark tested up to 100 μM) is over 1.6. For the same compound, in the assay on A375, the “A375 PI (phototherapeutic index), IC50 dark/IC50 irradiated” value is reported as over 1.3. Also, in the assay on SK-MEL-28 (setting [4]), the “SK-MEL-28 PI (phototherapeutic index), IC50 dark/IC50 irradiated” value is over 48. Moreover, the “A2780 PI (phototherapeutic index), IC50 dark/IC50 irradiated” value in the assay on A2780 (setting [4]) is over 14.
Regarding `CC1=C/C(=C(\C#N)c2cc[n+](C)cc2)Oc2ccccc21` [1b], the inhibition at 250 µM in the assay on A2780cis cells (250 μM, A2780cis, 2 h incubation in the dark, 48 h drug-free recovery, hypoxia, read-out: Partial inhibition (% of cell growth inhibition with respect to untreated controls), Hypoxia) is 4.5 ± 0.6%; with A2780cis cells (250 μM, A2780cis, 2 h incubation in the dark, 48 h drug-free recovery, normoxia, read-out: Partial inhibition (% of cell growth inhibition with respect to untreated controls), Normoxia), 24 ± 3%. Besides, the IC50 with A2780cis cells (setting [1]) is over 250 µM; in the assay with A2780cis cells (setting [2]) it was over 250 µM; with A2780cis cells (A2780cis, hypoxia, 520 nm, read-out: A2780cis Light 520 nm IC50 (microM) Hypoxia), over 250 µM; in the assay with A2780cis cells (A2780cis, hypoxia, dark, read-out: A2780cis Dark IC50 (microM) Hypoxia), over 250 µM; in the assay on A2780cis cells (A2780cis, normoxia 21% O2, 1 h incubation + 1 h green light 520 nm, 48 h drug-free, read-out: Normoxia 520 nm IC50) it was over 250 µM; in the assay on A2780cis cells (setting [3]) it was over 250 µM. In addition, the concentration for half-maximal inhibition (IC50) was over 250 µM in the assay with A2780cis cells (A2780cis, normoxia, 520 nm, read-out: A2780cis Light 520 nm IC50 (microM) Normoxia); over 250 µM with A2780cis cells (A2780cis, normoxia, dark, up to 250 microM, read-out: A2780cis Dark IC50 (microM) Normoxia); 10 ± 2 µM in the assay on A375 (Homo sapiens, A-375, 1 h incubation + 1 h green light 520 nm, 1.5 mW cm^–2, read-out: A375 light IC50); over 100 µM in the assay with A375 (Homo sapiens, A-375, kept in the dark, 2 h treatment, read-out: A375 dark IC50); over 100 µM in the assay with SK-MEL-28 (Homo sapiens, SK-MEL-28, 520 nm, read-out: SK-MEL-28 Light 520 nm IC50 (microM) Normoxia); over 100 µM in the assay with SK-MEL-28 (Homo sapiens, SK-MEL-28, 1 h incubation + 1 h green light 520 nm, 1.5 mW cm^–2, 48 h drug-free medium, read-out: SK-MEL-28 light IC50). Further, the IC50 in the assay on SK-MEL-28 (Homo sapiens, SK-MEL-28, dark, read-out: SK-MEL-28 Dark IC50 (microM) Normoxia) is over 100 µM; with SK-MEL-28 (Homo sapiens, SK-MEL-28, kept in the dark, 2 h treatment, 48 h drug-free medium, read-out: SK-MEL-28 dark IC50) it was over 100 µM; in the assay with A2780 (Homo sapiens, A2780, 520 nm, read-out: A2780 Light 520 nm IC50 (microM) Normoxia) it was over 100 µM; in the assay on A2780 (Homo sapiens, A2780, 1 h incubation + 1 h green light 520 nm, 1.5 mW cm^–2, 48 h drug-free medium, read-out: A2780 light IC50), over 100 µM; in the assay with A2780 (Homo sapiens, A2780, dark, read-out: A2780 Dark IC50 (microM) Normoxia), over 100 µM; with A2780 (Homo sapiens, A2780, kept in the dark, 2 h treatment, 48 h drug-free medium, read-out: A2780 dark IC50) it was over 100 µM. Further, in the assay on A375, the “A375 PI (phototherapeutic index), IC50 dark/IC50 irradiated” value is over 10.
